Reference: ChEMBL document CHEMBL4622844, “Inhibition of bacterial growth and galactosyltransferase activity of WbwC by α, ω-bis(3-alkyl-1H-imidazolium)alkane salts: Effect of varying carbon content” (Bioorg Med Chem, 2020)
One block for each compound: values may come before it. Active and inactive are the calls of the source. No cut-off for these calls is given here.

Key:
[1] = Inhibition of recombinant Escherichia coli O104:H4 Beta-1,3-galactosyltransferase WbwC expressed in Escherichia coli BL21 in presence of UDP-[3H]Gal and GalNAC-PO3-PO3-(CH2)11-O-phenyl after 1 hr by scintillation counting method
Escherichia coli [2] = assay: Inhibition of recombinant Escherichia coli O104:H4 Beta-1,3-galactosyltransferase WbwC expressed in Escherichia coli BL21 at 0.5 mM in presence of UDP-[3H]Gal and GalNAC-PO3-PO3-(CH2)11-O-phenyl after 1 hr by scintillation counting method relative to control
A549 [3] = assay: Growth inhibition of human A549 cells at 0.5 mM after 24 hrs by MTT assay; type: cell-based; settings: a549, 24 h, 500 µM
Pseudomonas aeruginosa [4] = assay: Antimicrobial activity against Pseudomonas aeruginosa PAO1 assessed as inhibition of colony formation at 50 uM preincubated for 4 hrs and measured after overnight incubation by CFU assay; type: functional
PC-3 [5] = assay: Growth inhibition of human PC3 cells at 0.5 mM after 24 hrs by MTT assay; type: cell-based; settings: pc-3, 24 h, 500 µM
PC-3 [6] = assay: Growth inhibition of human PC3 cells after 24 hrs by MTT assay; type: cell-based; settings: pc-3, 24 h
[7] = Growth inhibition of human OC-3-VGH cells at 0.5 mM after 24 hrs by MTT assay; type: cell-based; settings: read-out: GI
AD293 [8] = assay: Growth inhibition of human AD293 cells after 24 hrs by MTT assay; type: cell-based; settings: ad293, 24 h
AD293 [9] = assay: Growth inhibition of human AD293 cells at 0.5 mM after 24 hrs by MTT assay; type: cell-based; settings: ad293, 24 h, 500 µM
A549 [10] = assay: Growth inhibition of human A549 cells after 24 hrs by MTT assay; type: cell-based; settings: a549, 24 h
OC-3-VGH [11] = assay: Inhibition of cell migration in human OC-3-VGH cells at 500 uM incubated for 18 hrs by scratch wound healing assay; type: cell-based
OC-3-VGH [12] = assay: Growth inhibition of human OC-3-VGH cells after 24 hrs by MTT assay; type: cell-based
Bacillus subtilis [13] = assay: Antimicrobial activity against Bacillus subtilis assessed as inhibition of colony formation at 5 uM preincubated for 4 hrs and measured after overnight incubation by CFU assay; type: functional
Pseudomonas aeruginosa [14] = assay: Antimicrobial activity against Pseudomonas aeruginosa PAO1 assessed as inhibition of colony formation at 5 uM preincubated for 4 hrs and measured after overnight incubation by CFU assay; type: functional
Bacillus subtilis [15] = assay: Antimicrobial activity against Bacillus subtilis assessed as inhibition of colony formation at 10 uM preincubated for 4 hrs and measured after overnight incubation by CFU assay; type: functional
Bacillus subtilis [16] = assay: Antimicrobial activity against Bacillus subtilis assessed as inhibition of colony formation at 25 uM preincubated for 4 hrs and measured after overnight incubation by CFU assay; type: functional
Escherichia coli [17] = assay: Antimicrobial activity against Escherichia coli BL21 assessed as inhibition of colony formation at 10 uM preincubated for 4 hrs and measured after overnight incubation by CFU assay; type: functional
[18] = system: Staphylococcus epidermidis; assay: Antimicrobial activity against Staphylococcus epidermidis assessed as inhibition of colony formation at 5 uM preincubated for 4 hrs and measured after overnight incubation by CFU assay; type: functional
Pseudomonas aeruginosa [19] = assay: Antimicrobial activity against Pseudomonas aeruginosa PAO1 assessed as inhibition of colony formation at 25 uM preincubated for 4 hrs and measured after overnight incubation by CFU assay; type: functional
Pseudomonas aeruginosa [20] = assay: Antimicrobial activity against Pseudomonas aeruginosa PAO1 assessed as inhibition of colony formation at 10 uM preincubated for 4 hrs and measured after overnight incubation by CFU assay; type: functional
[21] = system: Staphylococcus epidermidis; assay: Antimicrobial activity against Staphylococcus epidermidis assessed as inhibition of colony formation at 25 uM preincubated for 4 hrs and measured after overnight incubation by CFU assay; type: functional
[22] = system: Staphylococcus epidermidis; assay: Antimicrobial activity against Staphylococcus epidermidis assessed as inhibition of colony formation at 10 uM preincubated for 4 hrs and measured after overnight incubation by CFU assay; type: functional
Escherichia coli [23] = assay: Antimicrobial activity against Escherichia coli BL21 assessed as inhibition of colony formation at 5 uM preincubated for 4 hrs and measured after overnight incubation by CFU assay; type: functional
Escherichia coli [24] = assay: Antimicrobial activity against Escherichia coli BL21 assessed as inhibition of colony formation at 25 uM preincubated for 4 hrs and measured after overnight incubation by CFU assay; type: functional
A549 [25] = assay: Growth inhibition of human A549 cells at 50 uM after 24 hrs by MTT assay; type: cell-based; settings: a549, 24 h
AD293 [26] = assay: Growth inhibition of human AD293 cells at 50 uM after 24 hrs by MTT assay; type: cell-based; settings: ad293, 24 h
OC-3-VGH [27] = assay: Growth inhibition of human OC-3-VGH cells at 50 uM after 24 hrs by MTT assay; type: cell-based
[28] = biological target: T1, Beta-1,4-galactosyltransferase 1 (Bos taurus) (UniProt P08037); assay: Inhibition of bovine milk Beta-1,4-galactosyltransferase at 0.5 mM in presence of UDP-[3H]Gal and GlcNAc-beta-Bn after 1 hr by scintillation counting method
T1 sequence (whole entry): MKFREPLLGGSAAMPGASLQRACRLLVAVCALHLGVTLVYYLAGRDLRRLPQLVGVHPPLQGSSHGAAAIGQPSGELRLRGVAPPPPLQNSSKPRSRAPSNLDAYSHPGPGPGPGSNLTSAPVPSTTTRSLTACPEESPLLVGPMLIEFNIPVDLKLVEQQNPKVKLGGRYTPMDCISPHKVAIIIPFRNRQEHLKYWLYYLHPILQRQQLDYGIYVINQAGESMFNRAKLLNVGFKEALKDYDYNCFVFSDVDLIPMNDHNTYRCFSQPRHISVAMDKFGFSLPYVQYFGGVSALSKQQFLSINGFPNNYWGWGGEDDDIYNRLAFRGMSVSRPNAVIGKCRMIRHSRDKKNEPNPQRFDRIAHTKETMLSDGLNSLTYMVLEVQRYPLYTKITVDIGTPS

SMILES: CCCCCCCCCC[n+]1ccn(CCCCCCCCCCn2cc[n+](CCCCCCCCCC)c2)c1
IC50 [1]: 152 µM | inhibition (Escherichia coli [2]): 98%

SMILES: CCCCCCCC[n+]1ccn(CCCCCCCCCCCCCCCCn2cc[n+](CCCCCCCC)c2)c1
IC50 [1]: 18 µM | inhibition (Escherichia coli [2]): 93%

SMILES: c1cn(CCCCCCCCCCCCCCCCn2ccnc2)cn1
growth inhibition (GI) (A549 [25]): Non-Toxic | growth inhibition (GI) (AD293 [26]): Non-Toxic | growth inhibition (GI) (OC-3-VGH [27]): Non-Toxic

SMILES: CCCCCCCCC[n+]1ccn(CCCCCCCCCCCCCCCCn2cc[n+](CCCCCCCCC)c2)c1
IC50 [1]: 35 µM | inhibition (Escherichia coli [2]): 93%

SMILES: CCCCCCC[n+]1ccn(CCCCCCCCCCCCCCCCn2cc[n+](CCCCCCC)c2)c1
IC50 [1]: 11 µM | inhibition (Escherichia coli [2]): 95%

SMILES: c1cn(CCCCCCCCCCCCCCCCCCCCn2ccnc2)cn1
growth inhibition (GI) (A549 [25]): Non-Toxic | growth inhibition (GI) (AD293 [26]): Non-Toxic | growth inhibition (GI) (OC-3-VGH [27]): Non-Toxic

SMILES: CCCCCCCC[n+]1ccn(CCCCCCn2cc[n+](CCCCCCCC)c2)c1
inhibition (Escherichia coli [2]): 13%

SMILES: CCCCCCCCCC[n+]1ccn(CCCCCCCCCCCCCCCCn2cc[n+](CCCCCCCCCC)c2)c1
IC50 [1]: 147 µM | inhibition (Escherichia coli [2]): 92%

SMILES: C[n+]1ccn(CCCCCCCCCCCCCCCn2cc[n+](C)c2)c1
inhibition (Escherichia coli [2]): 11%

SMILES: CCCCCCCCCCC[n+]1ccn(CCCCCCCCCCCCCCCCn2cc[n+](CCCCCCCCCCC)c2)c1
inhibition at 5 µM (Bacillus subtilis [13]): 100% | inhibition at 5 µM (Pseudomonas aeruginosa [14]): 28% | IC50 [1]: 123 µM | inhibition at 10 µM (Bacillus subtilis [15]): 100% | inhibition at 25 µM (Bacillus subtilis [16]): 100% | inhibition at 10 µM (Escherichia coli [17]): 100% | inhibition (Escherichia coli [2]): 92% | inhibition at 5 µM [18]: 100% | inhibition at 25 µM (Pseudomonas aeruginosa [19]): 100% | inhibition at 10 µM (Pseudomonas aeruginosa [20]): 77% | inhibition at 25 µM [21]: 100% | inhibition at 10 µM [22]: 100% | inhibition at 5 µM (Escherichia coli [23]): 100% | inhibition at 25 µM (Escherichia coli [24]): 100%

Further lines, with some results ahead:

IC50 [1]: 230 µM | inhibition (Escherichia coli [2]): 91% | inhibition (INH) (OC-3-VGH [11]): Active
SMILES: CS(=O)(=O)[O-].CS(=O)(=O)[O-].C[n+]1ccn(CCCCCCCCCCCCCCCCCCCCn2cc[n+](C)c2)c1
growth inhibition (GI) (A549 [3]): Toxic | inhibition at 50 µM (Pseudomonas aeruginosa [4]): > 90% | growth inhibition (GI) (PC-3 [5]): Toxic | growth inhibition (GI) (PC-3 [6]): Toxic | inhibition at 24 h, 500 µM [7]: 80% | growth inhibition (GI) (AD293 [8]): Toxic | growth inhibition (GI) (AD293 [9]): Toxic | growth inhibition (GI) (A549 [10]): Toxic | IC50 (OC-3-VGH [12]): 5 to 12 µM

IC50 [1]: 123 µM | inhibition (Escherichia coli [2]): 64%
SMILES: CCCCCCCC[n+]1ccn(CCCCCCCCCCn2cc[n+](CCCCCCCC)c2)c1
inhibition at 5 µM (Bacillus subtilis [13]): 100% | inhibition at 5 µM (Pseudomonas aeruginosa [14]): 96% | inhibition at 10 µM (Bacillus subtilis [15]): 100% | inhibition at 25 µM (Bacillus subtilis [16]): 100% | inhibition at 10 µM (Escherichia coli [17]): 100% | inhibition at 5 µM [18]: 100% | inhibition at 25 µM (Pseudomonas aeruginosa [19]): 100% | inhibition at 10 µM (Pseudomonas aeruginosa [20]): 100% | inhibition at 25 µM [21]: 100% | inhibition at 10 µM [22]: 100% | inhibition at 5 µM (Escherichia coli [23]): 100% | inhibition at 25 µM (Escherichia coli [24]): 100%

inhibition [28]: Active | IC50 [1]: 48 µM | inhibition (Escherichia coli [2]): 88%
SMILES: CCCCCC[n+]1ccn(CCCCCCCCCCCCCCCCn2cc[n+](CCCCCC)c2)c1

inhibition [28]: Active | IC50 [1]: 263 µM | inhibition (Escherichia coli [2]): 92%
SMILES: CCCCCCCCCC[n+]1ccn(CCCCCCn2cc[n+](CCCCCCCCCC)c2)c1

inhibition (Escherichia coli [2]): < 1%
SMILES: C[n+]1ccn(CCCCCCCCCCCCCCCCn2cc[n+](C)c2)c1

inhibition (Escherichia coli [2]): 6%
SMILES: CCCCCC[n+]1ccn(CCCCCCn2cc[n+](CCCCCC)c2)c1

inhibition [28]: Active | IC50 [1]: 59 µM | inhibition (Escherichia coli [2]): 91%
SMILES: CCCCCCCCCCCC[n+]1ccn(CCCCCCCCCCn2cc[n+](CCCCCCCCCCCC)c2)c1
inhibition at 5 µM (Bacillus subtilis [13]): 100% | inhibition at 5 µM (Pseudomonas aeruginosa [14]): > 98% | inhibition at 10 µM (Bacillus subtilis [15]): 100% | inhibition at 25 µM (Bacillus subtilis [16]): 100% | inhibition at 10 µM (Escherichia coli [17]): 100% | inhibition at 5 µM [18]: 100% | inhibition at 25 µM (Pseudomonas aeruginosa [19]): < 98% | inhibition at 10 µM (Pseudomonas aeruginosa [20]): 100% | inhibition at 25 µM [21]: 100% | inhibition at 10 µM [22]: 100% | inhibition at 5 µM (Escherichia coli [23]): 100% | inhibition at 25 µM (Escherichia coli [24]): 100%
